Reference: patent US11000568B2, “Means and methods for treating copper-related diseases” (HELMHOLTZ ZENTRUM MÜNCHEN—DEUTSCHES FORSCHUNGSZENTRUM FÜR …, priority 2015, dated 2021)
“Also recorded” adds a separate entry of the source. Numbered stars: 1 amine (or outer) side, 2 acyl side, 3 side chain; on linkers, the order of the positions; unused ones are H or OH. Bridge positions count the residues as written; N and C are the ends. Square brackets hold non-standard residues; d marks the D form. Peptide text beside a SMILES is read from it. * marks the point of attachment. X2 = O=C1OC(C2CCCN2[*:1])=NC1C(=S)NC(CO)C(=O)[*:2]; X1 = CC(C)CC(=O)C1=NC(C(=S)NCC(=O)*)C(=O)O1

Key:
[1] = target: mitochondrial respiratory complex IV (Rattus norvegicus, UniProt P00406+P05503)
Sequence of mitochondrial respiratory complex IV (P00406 whole entry, other chains not shown, the tested form may be a part): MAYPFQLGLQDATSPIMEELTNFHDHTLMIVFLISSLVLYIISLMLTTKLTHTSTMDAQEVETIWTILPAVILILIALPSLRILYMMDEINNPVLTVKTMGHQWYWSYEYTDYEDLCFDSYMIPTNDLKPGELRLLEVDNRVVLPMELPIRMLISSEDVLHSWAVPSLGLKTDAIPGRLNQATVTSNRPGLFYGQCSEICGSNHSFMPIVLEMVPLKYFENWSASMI

LPP−/− livers = experiment: Two hour LPP−/− liver perfusion; design: species or system rat
Experimental: LPP−/− livers (animal age 79-83 days) were perfused in a single pass manner with Krebs-Ringer bicarbonate solution containing 5 mM glucose (Beuers et al., J Biol Chem 278, 17810-17818 (2003)). The medium was gassed with 95% O2/5% CO2 and kept at 37° C. Rat livers were perfused via the portal vein (Beuers et al., log. cit.), the right lateral liver lobe was ligated and its copper content served as pre-perfusion control (Beuers et al., Hepatology 33, 1206-1216 (2001)). After cannulation of the bile duct a 20 min sample of bile was collected before the copper chelators were continuously added to the perfusion medium. Bile and outflow perfusate were collected in 10 min intervals as described elsewhere (Beuers et al., log. cit.). D-PA*HCl (20 mg/108 μmol), TETA*2HCl (20 mg/91 μmol), TTM*2NH4 (10 mg/38 μmol) and MB (40 mg/35 μmol) were each dissolved in 50 ml 0.9% NaCl, and continuously added to the perfusion medium via a perfusion pump (Perfusor, Braun, Melsungen) within 2 hours. The molar ratios of the chelators applied was MB 1:D-PA 3.1:TETA 2.6:TTM 1.1. LDH in the outflow perfusate was measured every ten minutes as described (Beuers et al., log. cit.). Control perfusions were done with Krebs-Ringer bicarbonate solution only.

diseased LPP−/− rats = experiment: Acute rescue regimen in diseased LPP−/− rats; type: in vivo, rat
[2] = Stability analysis of MB by absorbance of oxazolone rings; type: physicochemical; settings: time and/or temperature
Experimental: (C) Stability analysis of metal free MB and Zn-loaded MB followed by absorbance measurements of their two metastable oxazolone rings (OxaA/ZnA at 394 nm and OxaB/ZnB at 340 nm)^57 at 37° C.
HepG2 cells were kept in MEM with 2% FCS. […] Therefore, Zn-MB, generated by preparing a 20 mM MB solution and adding an equimolar concentration of Zn solution under pH control, was used in cell culture experiments.

[3] = test system: WD patient-derived hepatocyte like (HLC) cells; experiment: De-coppering of WD patient-derived hepatocyte like cells (HLC); type: cell-based, human; settings: Cu-histidin 15 μM 24 h, then MB 300 μM 24 h
Experimental: Urinary epithelial cells were pelleted at 400×g for 10 min from freshly donated mid-stream urine (Zhou et al., J Am Soc Nephrol 22, 1221-1228 (2011)). Cells were cultured in urinary cell medium (UCM) consisting of Dulbecco's modified Eagle medium/Ham's F-12 culture medium (DMEM/F12, Lonza) supplemented with 10% fetal bovine serum (FBS, PAA), 0.1 mM non-essential amino acids (NEAA, Sigma), 0.1 mM β-mercaptoethanol, 1 mM GlutaMAX (Life Technologies), and SingleQuot Kit CC-4127 REGM (Lonza). Urinary epithelial cells were reprogrammed by nucleofection of episomal expression vectors pCXLE-hOCT3/4-shp53-F, pCXLE-hSK, and pCXLE-hUL (Addgene) using the Amaxa Basic Nucleofector Kit (Lonza, VPI-1005). iPS cells (iPSCs) were maintained on Matrigel-coated plates in mTeSR cell culture medium and dissociated with 1 U/ml dispase (Stem Cell Technologies) into small clusters and subcultured every 5 to 7 days. WD iPSCs were differentiated into hepatocyte-like cells (HLCs) by a modification of the method reported previously (Basma et al., Gastroenterology 136, 990-999 (2009)). […] iPSCs were plated in single cells onto 6-well plates precoated with Matrigel. […]
HLCs were incubated at day 14 with Cu-histidin (15 μM) for 24 h in a 6 well plate. […] After 24 h incubation, washed cells were collected, counted and their copper content assessed.

Q: With `CSCCC(NC(=O)C1CSSCC(NC(=O)C(CO)NC(=O)CNC(=S)C2N=C(C(=O)CC(C)C)OC2=O)C(=O)NC(Cc2ccc(O)cc2)C(=O)N2CCCC2C2=NC(C(=O)O2)C(=S)NC(CO)C(=O)N1)C(=O)O` (stereo not shown) [MB] (X1-SCY[X2]CM-OH; disulfide 2-5; configuration not given here) as the compound, how does the “toxicity to copper-dependent respiratory complex IV activity” value [1] read?
A: Its value is “significantly less toxic than TTM”.

Q: What about the “copper released into bile” value (LPP−/− livers; MB 0.7 μM, TTM 0.8 μM, D-PA 2.2 μM, TETA 1.8 μM) of the same compound?
A: Its value is “tenfold higher amounts of copper; also recorded: tenfold higher copper amounts into bile”.

Q: And the “liver copper content after perfusion” value (LPP−/− livers; vs pre-perfusion/buffer control)?
A: The value was “significantly reduced the copper content; also recorded: significantly reduces the liver copper content”.

Q: And the body weight (diseased LPP−/− rats; 16 i.p. injections)?
A: Its body weight is “regained weight”.

Q: What about the copper values (diseased LPP−/− rats; end of treatment regimen) of the same compound?
A: The copper values was “exceptionally low copper values”.

Q: What about the “serum AST and bilirubin” value (diseased LPP−/− rats; end of treatment regimen) of the same compound?
A: The value was “normal serum AST and bilirubin”.

Q: What about the weight regained (diseased LPP−/− rats; moribund animal no. 3) of the same compound?
A: The weight regained was 29%.

Q: What about the survival (diseased LPP−/− rats; two daily MB i.p. injections for one week (16 in total), four rats) of the same compound?
A: Its survival is “All animals survived”.

Q: What about the decay [2] of the same compound?
A: The decay was “susceptible to time- and/or temperature-dependent decay”.

Q: And the “de-coppering of copper preloaded HLC” value [3]?
A: Its value is “Comparable copper depletions; also recorded: highly efficiently de-coppered”.
